The values that follow come from patent publication US20030113813A1, “Methods and devices for the integrated discovery of cell culture environments” (priority 2001, published 2003).

This assay deals with MC3T3-E1 cells. The assay is described as follows: Cell attachment and growth on modified (HA-coated, periodate-oxidized) surfaces carrying bioactive agents. The class given is cell-based, murine. Particulars: for cell attachment and growth: FIG. 4A, immobilized HA surface treated with lowest (3 mM) periodate concentration, collagen 3.2 mg/ml, laminin 2 mg/ml. An excerpt: MC3T3-E1 cells were used to determine the effect of different bioactive agents for creation of bioactive surfaces influencing the growth and differentiation of these osteoblasts (also considered to be osteogenic stem cells). These cells are from a clonal line of murine calvaria-derived osteoblast (establishment of a clonal osteogenic cell line from newborn mouse calvaria describe in J Oral Biol 23:899 (1981)). The cells are maintained in α-MEM (GIBCO Catalog #12561) supplemented with 2% fetal calf serum (FCS; inactivated) and 100 units or μg/ml penicillin/streptomycin.
The cells were seeded at a concentration of approximately 10^4 cells/20 ml culture medium in a 250 ml canted neck polystyrene tissue culture-treated flask. Cells were cultured until they reach about 2×10^6 cells/flask. Cells were harvested and resuspended in 5 ml of α-MEM with 2% FCS to a final cell concentration of about 4×10^4 cells/100 μl.
The surface modified slide was placed into a polystyrene Petri dish and covered with the cells for 30 minutes. […] To quantitate cell attachment and growth, an image of the slide or other surface after staining with hematoxylin/eosin was captured using a color scanner, and the density determined using the Scion Image analysis program.

As for “Arg-Gly-Asp-Ser-Pro (RGDSP) (printed: Arg-Gly-Asp-Ser-Pro) [ECM adhesion peptide from AnaSpec Inc, reference compound]”, under “FIGS. 4B-4F, RGDSP 1 mg/ml deposited on oxidized HA surface”, the “cell growth on ECM peptide surface vs. control surface” value is given as “cells grew only on the surfaces onto which RGDSP was deposited”.

As for collagen, the “cell attachment and growth” value is “supported cell attachment and growth”.

For laminin, the “cell attachment and growth” value was “supported cell attachment and growth”. For the same substance, the “cell density on bioactive agent” value (FIG. 2, cells grown on microarray of bioactive agents coupled to HA surface, fluorescent staining) is given as “cell density was greater on Vitrogen™ than on laminin”.
